Experimental data as given in patent US20220213047A1, “CARBONIC ANHYDRASE INHIBITORS FOR TREATMENT OF NEISSERIA GONORRHOEAE INFECTION” (Purdue Research Foundation, priority 2021, published 2022).
Converted amounts (≈) assume the structure as drawn. “Also recorded” adds a separate entry of the source.

Legend:
[1] = system: N. gonorrhoeae; assay: MIC against N. gonorrhoeae clinical isolates, normal and CO2 conditions; assay type: cell-based; settings: Neisseria gonorrhoeae
Procedure: (§1) These tests were performed in normal culture conditions with standard CO2 levels and in CO2 (5% in incubator) conditions.

[2] = system: N. gonorrhoeae; assay: MIC by agar dilution on a larger panel of N. gonorrhoeae strains; assay type: cell-based, Neisseria gonorrhoeae; settings: for MIC: Neisseria gonorrhoeae, read-out: MIC
Procedure: as §1

For `CCOc1ccc2nc(S(N)(=O)=O)sc2c1` [Ethoxzolamide], the MIC ([1]; N. gonorrhoeae 178, Non CO2 environment) was no more than 0.5 µg/mL, the MIC ([1]; N. gonorrhoeae 178, normal growth environment (with CO2)) was greater than 64 µg/mL and the MIC ([1]; N. gonorrhoeae 181, Non CO2 environment) was no more than 0.5 µg/mL. It also gave an MIC ([1]; N. gonorrhoeae 181, normal growth environment (with CO2)) greater than 64 µg/mL, an MIC ([1]; N. gonorrhoeae 194, Non CO2 environment) of no more than 0.5 µg/mL and an MIC ([1]; N. gonorrhoeae 194, normal growth environment (with CO2)) greater than 64 µg/mL. For the same compound, the “activity against N. gonorrhoeae under CO2 conditions” value ([2]; CO2 conditions versus standard conditions, listed as EZM) was “did not maintain any activity; also recorded: significant reduction of activity”, the MIC ([2]; N. gonorrhoeae 165, CO2 (5% CO2 containing air)) was greater than 128 µg/mL and the MIC ([2]; N. gonorrhoeae 166, CO2 (5% CO2 containing air)) was greater than 128 µg/mL. It also gave an MIC ([2]; N. gonorrhoeae 166, Non CO2 (ambient air)) of 0.06 µg/mL (≈ 0.232 µM), an MIC ([2]; N. gonorrhoeae 167, CO2 (5% CO2 containing air)) of 64 µg/mL (≈ 248 µM) and an MIC ([2]; N. gonorrhoeae 167, Non CO2 (ambient air)) of 0.25 µg/mL (≈ 0.968 µM). For the same compound, the MIC ([2]; N. gonorrhoeae 170, CO2 (5% CO2 containing air)) was greater than 128 µg/mL, the MIC ([2]; N. gonorrhoeae 170, Non CO2 (ambient air)) was 0.06 µg/mL (≈ 0.232 µM) and the MIC ([2]; N. gonorrhoeae 171, CO2 (5% CO2 containing air)) was 64 µg/mL (≈ 248 µM). It also gave an MIC ([2]; N. gonorrhoeae 173, CO2 (5% CO2 containing air)) of 128 µg/mL (≈ 496 µM), an MIC ([2]; N. gonorrhoeae 174, CO2 (5% CO2 containing air)) greater than 128 µg/mL and an MIC ([2]; N. gonorrhoeae 175, CO2 (5% CO2 containing air)) greater than 128 µg/mL. For the same compound, the MIC ([2]; N. gonorrhoeae 175, Non CO2 (ambient air)) was 0.25 µg/mL (≈ 0.968 µM), the MIC ([2]; N. gonorrhoeae 176, CO2 (5% CO2 containing air)) was 128 µg/mL (≈ 496 µM) and the MIC ([2]; N. gonorrhoeae 176, Non CO2 (ambient air)) was 0.25 µg/mL (≈ 0.968 µM). The MIC ([2]; N. gonorrhoeae 177, CO2 (5% CO2 containing air)) was 16 µg/mL (≈ 61.9 µM), the MIC ([2]; N. gonorrhoeae 177, Non CO2 (ambient air)) was 0.5 µg/mL (≈ 1.94 µM) and the MIC ([2]; N. gonorrhoeae 178, CO2 (5% CO2 containing air)) was greater than 128 µg/mL. The MIC ([2]; N. gonorrhoeae 178, Non CO2 (ambient air)) was 0.06 µg/mL (≈ 0.232 µM), the MIC ([2]; N. gonorrhoeae 179, CO2 (5% CO2 containing air)) was greater than 128 µg/mL and the MIC ([2]; N. gonorrhoeae 179, Non CO2 (ambient air)) was 0.25 µg/mL (≈ 0.968 µM). The MIC ([2]; N. gonorrhoeae 180, CO2 (5% CO2 containing air)) was greater than 128 µg/mL, the MIC ([2]; N. gonorrhoeae 181, CO2 (5% CO2 containing air)) was 64 µg/mL (≈ 248 µM) and the MIC ([2]; N. gonorrhoeae 181, Non CO2 (ambient air)) was 0.25 µg/mL (≈ 0.968 µM). For the same compound, the MIC ([2]; N. gonorrhoeae 182, CO2 (5% CO2 containing air)) was 64 µg/mL (≈ 248 µM), the MIC ([2]; N. gonorrhoeae 182, Non CO2 (ambient air)) was 0.25 µg/mL (≈ 0.968 µM) and the MIC ([2]; N. gonorrhoeae 183, CO2 (5% CO2 containing air)) was 32 µg/mL (≈ 124 µM). The MIC ([2]; N. gonorrhoeae 184, CO2 (5% CO2 containing air)) was 32 µg/mL (≈ 124 µM), the MIC ([2]; N. gonorrhoeae 184, Non CO2 (ambient air)) was 0.25 µg/mL (≈ 0.968 µM) and the MIC ([2]; N. gonorrhoeae 185, CO2 (5% CO2 containing air)) was 64 µg/mL (≈ 248 µM). The MIC ([2]; N. gonorrhoeae 186, CO2 (5% CO2 containing air)) was 64 µg/mL (≈ 248 µM), the MIC ([2]; N. gonorrhoeae 188, CO2 (5% CO2 containing air)) was 64 µg/mL (≈ 248 µM) and the MIC ([2]; N. gonorrhoeae 188, Non CO2 (ambient air)) was 0.06 µg/mL (≈ 0.232 µM). For the same compound, the MIC ([2]; N. gonorrhoeae 191, CO2 (5% CO2 containing air)) was greater than 128 µg/mL, the MIC ([2]; N. gonorrhoeae 191, Non CO2 (ambient air)) was 0.06 µg/mL (≈ 0.232 µM) and the MIC ([2]; N. gonorrhoeae 193, CO2 (5% CO2 containing air)) was 64 µg/mL (≈ 248 µM). For the same compound, the MIC ([2]; N. gonorrhoeae 194, CO2 (5% CO2 containing air)) was 64 µg/mL (≈ 248 µM), the MIC ([2]; N. gonorrhoeae 194, Non CO2 (ambient air)) was 0.25 µg/mL (≈ 0.968 µM) and the MIC ([2]; N. gonorrhoeae 196, CO2 (5% CO2 containing air)) was greater than 128 µg/mL.
